Experiments:
human dermal fibroblasts = test: UVA-induced intracellular amplification of ROS (dihydrorhodamine 123, flow cytometry); assay type: cell-based
Procedure: The modulating effect of the tripeptides […]) and Thyrotropin Releasing Hormones (TRH, Protirelin, Thyoliberin, […]) was examined on human dermal fibroblasts that were seeded into 3.5 cm^2 tissue culture dishes in a density of 150,000 per dish in […] medium. Two days after seeding the cells, the medium supplemented with 10% foetal calf serum, 1% L-glutamine and 1% penicillin/streptomycin was exchanged with serum-free RPMI medium and pre-incubated for 24 hours with KPV, […] Subsequently, the cells were exposed to a physiological dose of UVA radiation (10 J/cm^2). Immediately after radiation, the cells were incubated with 5 μM dihydrorhodamine 123 plus 5 mM glucose in phosphate buffer (PBS) for 30 minutes. Subsequently, the cells were trypsinized, resuspended in PBS with 5 mM glucose and analyzed by means of flow cytometry (FACS, FACSCalibur with 488 nm argon laser). The above dihydrorhodamine probe is oxidized in the presence of intracellular ROS into green fluorescent […] and, thus, can be measured fluorometrically. A total of 10×10^3 cells per probe were analyzed and evaluated using CELL-QUEST software. The median of the FL-1 channel was used as parameter for the intracellular ROS amount, since it represents the maximum number of cells with the highest fluorescence. […]

B16.F1 melanoma cells = test: Extracellular melanin accumulation (optical density 405 nm); assay type: cell-based, mouse; conditions: peptides at 10^-6, 10^-8 and 10^-10 M; NDP-α-MSH 10^-8 M; 72 hrs (FIG. 3)
Text: It is also preferred that the compounds of the invention have no or merely a negligible melanotropic effect. “Melanotropic effect” means that the compound induces the extracellular melanin accumulation in a cell assay in accordance with the method described in the appended example 2 and/or in accordance with the method described in Siegrist and Eberle (Anal. Biochem. 1986; 159; 191-197), title “In situ melanin assay for MSH using mouse B16 melanoma cells in culture”. “No or negligible” means that the mean melanin accumulation which is induced by the compounds of the invention exceeds the mean melanin accumulation which is induced by at least one of the two compounds as exemplified in Example 2 by not more than about 40%, 30%, 20%, 15%, 10%, 5%, 2.5%, 2% or 1%, preferably under conditions which equate to or are identical with those set out in Example 2. The skilled person is able to justify which assay conditions/assays equate with the assay/conditions exemplified in the appended examples. The melanin accumulation evaluated in Example 2 is depicted in FIG. 3. The effect of the compounds of the invention on extracellular melanin accumulation is thus determinable by the methods disclosed herein. […]

NC(=O)[C@@H]1CCCN1C(=O)[C@H](Cc1c[nH]cn1)NC(=O)[C@@H]1CCC(=O)N1 [TRH, L-Pyroglutamyl-L-histidyl-L-prolinamid]
UVA-induced intracellular amplification of ROS (oxidative stress) (human dermal fibroblasts; 10^-8 M peptide, 24 h pre-incubation, UVA 10 J/cm^2, significant, p<0.001 (FIG. 1)): suppressed
effect on UVA-induced intracellular amplification of ROS compared to vitamin C (ascorbate) (human dermal fibroblasts; peptide 10^-8M vs vitamin C at 10^-2M as printed (FIG. 2)): comparable with that of vitamin C

NDP-α-MSH
melanotropic effect (extracellular melanin accumulation) (B16.F1 melanoma cells): p<0.001 vs. control

From patent US20100286056A1, “COMPOSITIONS FOR REDUCING OXIDATIVE STRESS AND USES THEREOF” (priority 2007, published 2010)
